Data reported in ChEMBL document CHEMBL5236646, “Design, synthesis, and biological evaluation of BRD4 degraders” (Bioorg Med Chem, 2023).
The source made the active and inactive calls. The calls are words filed in the database; no cut-off is given here.

How the values were obtained:
[1] = target: T1, Protein cereblon/Bromodomain-containing protein 4 (Homo sapiens) (UniProt O60885+Q96SW2); test: Protac activity at CRBN/BRD4 in human MM1.S cells assessed as induction of BRD4 protein degradation by measuring residual activity at 300 nM measured immediately by Western blot analysis (reference value: 317%); format: cell-based
[2] = target: T1, Protein cereblon/Bromodomain-containing protein 4 (Homo sapiens); test: Protac activity at CRBN/BRD4 in human MV4-11 cells assessed as induction of BRD4 protein degradation by measuring residual activity at 0.001 uM incubated for 3 hrs by Western blot analysis relative to control; format: cell-based
[3] = target: T1, Protein cereblon/Bromodomain-containing protein 4 (Homo sapiens); test: (§1) Protac activity at CRBN/BRD4 in human MM1.S cells assessed as induction of BRD4 protein degradation by measuring residual activity at 300 nM measured after 6 hrs by Western blot analysis (reference value: 317%); format: cell-based
[4] = Inhibition of TGF-beta induced activation of human MRC5 cells assessed as residual BRD4 protein level at 1 uM by Western blot analysis (reference value: 96%); format: functional
[5] = target: T1, Protein cereblon/Bromodomain-containing protein 4 (Homo sapiens); test: Protac activity at CRBN/BRD4 in human MM1.S cells assessed as induction of BRD4 protein degradation by measuring residual activity at 10 nM measured after 6 hrs by Western blot analysis (reference value: 100%); format: cell-based
[6] = target: T1, Protein cereblon/Bromodomain-containing protein 4 (Homo sapiens); test: Protac activity at CRBN/BRD4 in human MM1.S cells assessed as downregulation of MYC protein expression at 300 nM measured after 3 hrs by Western blot analysis; format: cell-based
[7] = Inhibition of TGF-beta induced activation of human MRC5 cells assessed as residual BRD4 protein level at 0.5 uM by Western blot analysis (reference value: 96%); format: functional
[8] = target: T1, Protein cereblon/Bromodomain-containing protein 4 (Homo sapiens); test: as §1, with “nM preincubated with tert-butyl (S)-2-(4-(4-chlorophenyl)-2,3,9-trimethyl-6H-thieno[3,2-f][1,2,4]triazolo[4,3-a][1,4]diazepin-6-yl)acetate for 2 hrs followed by compound addition and” for “nM”, “100%)” for “317%)”; format: cell-based
[9] = target: T1, Protein cereblon/Bromodomain-containing protein 4 (Homo sapiens); test: Protac activity at CRBN/BRD4 in human MV4-11 cells assessed as induction of BRD4 protein degradation by measuring residual activity at 30 nM measured after 3 hrs by Western blot analysis (reference value: 100%); format: cell-based
[10] = target: T1, Protein cereblon/Bromodomain-containing protein 4 (Homo sapiens); test: Protac activity at CRBN/BRD4 in human MM1.S cells assessed as induction of BRD4 protein degradation by measuring residual activity at 100 nM measured after 6 hrs by Western blot analysis (reference value: 100%); format: cell-based
[11] = target: T1, Protein cereblon/Bromodomain-containing protein 4 (Homo sapiens); test: (§2) Protac activity at CRBN/BRD4 in human MV4-11 cells assessed as induction of BRD4 protein degradation by measuring residual activity at 30 nM measured after 6 hrs by Western blot analysis (reference value: 100%); format: cell-based
[12] = target: T1, Protein cereblon/Bromodomain-containing protein 4 (Homo sapiens); test: Protac activity at CRBN/BRD4 in human MM1.S cells assessed as induction of BRD4 protein degradation by measuring residual activity at 30 nM measured after 6 hrs by Western blot analysis (reference value: 100%); format: cell-based
[13] = target: T1, Protein cereblon/Bromodomain-containing protein 4 (Homo sapiens); test: Protac activity at CRBN/BRD4 in human MV4-11 cells assessed as downregulation of MYC protein expression at 30 uM incubated for 3 hrs by Western blot analysis; format: cell-based
[14] = target: T1, Protein cereblon/Bromodomain-containing protein 4 (Homo sapiens); test: Protac activity at CRBN/BRD4 in human MM1.S cells assessed as induction of BRD4 protein degradation by measuring residual activity at 1000 nM measured after 6 hrs by Western blot analysis (reference value: 100%); format: cell-based
[15] = target: T1, Protein cereblon/Bromodomain-containing protein 4 (Homo sapiens); test: Protac activity at CRBN/BRD4 in human MV4-11 cells assessed as induction of BRD4 protein degradation by measuring residual activity at 0.009 uM incubated for 3 hrs by Western blot analysis relative to control; format: cell-based
[16] = target: T1, Protein cereblon/Bromodomain-containing protein 4 (Homo sapiens); test: Protac activity at CRBN/BRD4 in human MM1.S cells assessed as induction of BRD4 protein degradation by measuring residual activity at 300 nM measured after 9 hrs by Western blot analysis (reference value: 317%); format: cell-based
[17] = target: T1, Protein cereblon/Bromodomain-containing protein 4 (Homo sapiens); test: Protac activity at CRBN/BRD4 in human MV4-11 cells assessed as induction of BRD4 protein degradation by measuring residual activity at 30 nM measured immediately by Western blot analysis (reference value: 100%); format: cell-based
[18] = target: T1, Protein cereblon/Bromodomain-containing protein 4 (Homo sapiens); test: Protac activity at CRBN/BRD4 in human MV4-11 cells assessed as induction of BRD4 protein degradation by measuring residual activity at 10 nM measured after 6 hrs by Western blot analysis (reference value: 100%); format: cell-based
[19] = target: T1, Protein cereblon/Bromodomain-containing protein 4 (Homo sapiens); test: as §2, with “nM preincubated with tert-butyl (S)-2-(4-(4-chlorophenyl)-2,3,9-trimethyl-6H-thieno[3,2-f][1,2,4]triazolo[4,3-a][1,4]diazepin-6-yl)acetate for 2 hrs followed by compound addition and” for “nM”; format: cell-based
[20] = target: T1, Protein cereblon/Bromodomain-containing protein 4 (Homo sapiens); test: Protac activity at CRBN/BRD4 in human MV4-11 cells assessed as induction of BRD4 protein degradation by measuring residual activity at 0.003 uM incubated for 3 hrs by Western blot analysis relative to control; format: cell-based
MV4-11 = test: Antiproliferative activity against human […] cells assessed as inhibition of cell growth incubated for 72 hrs MTS assay; format: functional, cell-based; details: MV4-11, 72 h
[21] = target: T1, Protein cereblon/Bromodomain-containing protein 4 (Homo sapiens); test: Protac activity at CRBN/BRD4 in human MM1.S cells assessed as induction of BRD4 protein degradation by measuring residual activity at 0.09 uM incubated for 3 hrs by Western blot analysis relative to control; format: cell-based
[22] = target: T1, Protein cereblon/Bromodomain-containing protein 4 (Homo sapiens); test: Protac activity at CRBN/BRD4 in human MM1.S cells assessed as induction of BRD4 protein degradation by measuring residual activity at 0.03 uM incubated for 3 hrs by Western blot analysis relative to control; format: cell-based
[23] = target: T1, Protein cereblon/Bromodomain-containing protein 4 (Homo sapiens); test: Protac activity at CRBN/BRD4 in human MM1.S cells assessed as induction of BRD4 protein degradation by measuring residual activity at 300 nM measured after 3 hrs by Western blot analysis (reference value: 317%); format: cell-based
[24] = target: T1, Protein cereblon/Bromodomain-containing protein 4 (Homo sapiens); test: Protac activity at CRBN/BRD4 in human MM1.S cells assessed as induction of BRD4 protein degradation by measuring residual activity at 300 nM measured after 1 hr by Western blot analysis (reference value: 317%); format: cell-based
[25] = target: T1, Protein cereblon/Bromodomain-containing protein 4 (Homo sapiens); test: Protac activity at CRBN/BRD4 in human MV4-11 cells assessed as induction of BRD4 protein degradation by measuring residual activity at 1 nM measured after 6 hrs by Western blot analysis (reference value: 100%); format: cell-based
MRC5 = test: Inhibition of TGF-beta induced activation of human MRC5 cells assessed as downregulation of alpha-SMA protein expression at 0.1 to 10 uM by Western blot analysis; format: functional, cell-based; details: dose 0.1-10 µM
[26] = target: T1, Protein cereblon/Bromodomain-containing protein 4 (Homo sapiens); test: Protac activity at CRBN/BRD4 in human MV4-11 cells assessed as induction of BRD4 protein degradation by measuring residual activity at 30 nM measured after 9 hrs by Western blot analysis (reference value: 100%); format: cell-based
[27] = Inhibition of TGF-beta induced activation of human MRC5 cells assessed as residual BRD4 protein level at 0.1 uM by Western blot analysis (reference value: 96%); format: functional
[28] = target: T1, Protein cereblon/Bromodomain-containing protein 4 (Homo sapiens); test: Protac activity at CRBN/BRD4 in human MM1.S cells assessed as induction of BRD4 protein degradation by measuring residual activity at 300 nM measured after 6 hrs by Western blot analysis (reference value: 100%); format: cell-based

T1 sequence (Q96SW2 whole entry, looked up, other chains not shown): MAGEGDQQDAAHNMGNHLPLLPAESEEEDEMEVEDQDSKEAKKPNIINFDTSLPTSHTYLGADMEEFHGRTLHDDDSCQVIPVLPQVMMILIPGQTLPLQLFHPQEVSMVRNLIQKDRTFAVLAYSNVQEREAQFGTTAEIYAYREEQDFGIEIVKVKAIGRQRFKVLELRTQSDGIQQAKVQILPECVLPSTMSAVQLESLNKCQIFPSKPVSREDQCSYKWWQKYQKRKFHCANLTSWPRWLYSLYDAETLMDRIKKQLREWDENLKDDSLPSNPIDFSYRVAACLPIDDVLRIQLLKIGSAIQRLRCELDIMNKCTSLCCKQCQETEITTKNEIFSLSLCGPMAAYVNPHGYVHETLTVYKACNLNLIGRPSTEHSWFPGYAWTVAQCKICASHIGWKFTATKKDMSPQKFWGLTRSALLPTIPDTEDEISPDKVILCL

Cc1sc2c(c1C)C(c1ccc(Cl)cc1)=N[C@@H](CC(=O)NCCCCC(=O)NCCNc1cccc3c1C(=O)N(C1CCC(=O)NC1=O)C3=O)c1nnc(C)n1-2 (stereo not given in full)
Activity [1]: 362%
Activity [2]: 100%
Activity [3]: 18%
Activity [4]: 40%
Activity [5]: 62%
Activity [6]: Active
Activity [7]: 26%
Activity [8]: 61%
Activity [9]: 72%
Activity [10]: 24%
Activity [11]: 13%
Activity [12]: 42%
Activity [13]: Active
Activity [14]: 10%
Activity [15]: 62%
Activity [16]: 50%
Activity [17]: 110%
Activity [18]: 41%
Activity [19]: 84%
Activity [20]: 66%
IC50 (MV4-11): 3 nM
Activity [21]: 70%
Activity [22]: 81%
Activity [23]: 66%
Activity [24]: 129%
Activity [25]: 107%
inhibition (MRC5): Active
Activity [26]: 49%
Activity [27]: 31%
Activity [28]: 17%
